From the supplement of paper PMC10883282

Key:
Assay in all cases: relative viability vs DMSO control (72 h) (fraction); higher = more viable cells
[1] = tested on: A204
Summary of the method: (§1)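 Relative viability was measured with ATPLite and expressed as percent growth, averaged across up to triplicate wells. Sarcoma cell lines had been seeded in 384-well plates to reach 80–90% confluence, dosed after 24 h, and incubated 72 h at 37 °C, 5% CO2. All data were rescaled on a scale where 1 is full and 0 is none.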

[2] = tested on: HS729
Summary of the method: as §1

[3] = tested on: KHOS-240S
Summary of the method: as §1

[4] = tested on: RD
Summary of the method: as §1

[5] = tested on: SK-ES-1
Summary of the method: as §1

[6] = tested on: SW982
Summary of the method: as §1

[7] = tested on: SK-LMS-1
Summary of the method: as §1

[8] = tested on: SW872
Summary of the method: as §1

[9] = tested on: SW1353
Summary of the method: as §1

[10] = tested on: G401
Summary of the method: as §1

[11] = tested on: MES-SA
Summary of the method: as §1

[12] = tested on: VA-ES-BJ
Summary of the method: as §1

CCOc1cc2ncc(C#N)c(Nc3ccc(OCc4ccccn4)c(Cl)c3)c2cc1NC(=O)/C=C/CN(C)C [Neratinib]
Conditions	relative viability
[1], 0.00017 µM	1.09
[1], 0.00051 µM	1.09
[1], 0.00152 µM	1.08
[1], 0.00457 µM	1.097
[1], 0.01372 µM	1.03
[1], 0.04115 µM	1.06
[1], 0.1235 µM	1.01
[1], 0.3704 µM	0.665
[1], 1.111 µM	0.395
[1], 3.333 µM	0.338
[1], 10 µM	-0.00133
[2], 0.00017 µM	0.944
[2], 0.00051 µM	0.922
[2], 0.00152 µM	0.955
[2], 0.00457 µM	0.905
[2], 0.01372 µM	0.925
[2], 0.04115 µM	0.861
[2], 0.1235 µM	0.771
[2], 0.3704 µM	0.672
[2], 1.111 µM	0.639
[2], 3.333 µM	0.645
[2], 10 µM	0.00633
[3], 0.00017 µM	1.03
[3], 0.00051 µM	1.06
[3], 0.00152 µM	1.06
[3], 0.00457 µM	1.06
[3], 0.01372 µM	1.05
[3], 0.04115 µM	1.03
[3], 0.1235 µM	1
[3], 0.3704 µM	0.896
[3], 1.111 µM	0.741
[3], 3.333 µM	0.618
[3], 10 µM	0.338
[4], 0.00017 µM	1.12
[4], 0.00051 µM	1.1
[4], 0.00152 µM	1.11
[4], 0.00457 µM	1.11
[4], 0.01372 µM	1.09
[4], 0.04115 µM	1.072
[4], 0.1235 µM	0.95
[4], 0.3704 µM	0.714
[4], 1.111 µM	0.562
[4], 3.333 µM	0.384
[4], 10 µM	0.0033
[5], 0.00017 µM	1.05
[5], 0.00051 µM	1.02
[5], 0.00152 µM	1.04
[5], 0.00457 µM	1.01
[5], 0.01372 µM	1.01
[5], 0.04115 µM	0.963
[5], 0.1235 µM	0.797
[5], 0.3704 µM	0.397
[5], 1.111 µM	0.298
[5], 3.333 µM	0.235
[5], 10 µM	0.00187
[6], 0.00017 µM	1.06
[6], 0.00051 µM	1.07
[6], 0.00152 µM	1.05
[6], 0.00457 µM	1.04
[6], 0.01372 µM	1.05
[6], 0.04115 µM	1
[6], 0.1235 µM	0.87
[6], 0.3704 µM	0.483
[6], 1.111 µM	0.379
[6], 3.333 µM	0.215
[6], 10 µM	0.0234
[7], 0.00017 µM	1.03
[7], 0.00051 µM	1
[7], 0.00152 µM	1.06
[7], 0.00457 µM	1.02
[7], 0.01372 µM	1.08
[7], 0.04115 µM	1.06
[7], 0.1235 µM	0.943
[7], 0.3704 µM	0.724
[7], 1.111 µM	0.698
[7], 3.333 µM	0.646
[7], 10 µM	0.0104
[8], 0.00017 µM	1.03
[8], 0.00051 µM	1.02
[8], 0.00152 µM	1.03
[8], 0.00457 µM	1.03
[8], 0.01372 µM	1.01
[8], 0.04115 µM	0.97
[8], 0.1235 µM	0.932
[8], 0.3704 µM	0.76
[8], 1.111 µM	0.609
[8], 3.333 µM	0.492
[8], 10 µM	-0.00553
[9], 0.00017 µM	0.971
[9], 0.00051 µM	0.955
[9], 0.00152 µM	0.923
[9], 0.00457 µM	0.934
[9], 0.01372 µM	0.899
[9], 0.04115 µM	0.807
[9], 0.1235 µM	0.71
[9], 0.3704 µM	0.568
[9], 1.111 µM	0.525
[9], 3.333 µM	0.426
[9], 10 µM	0.0062
[10], 0.00017 µM	1.02
[10], 0.00051 µM	1
[10], 0.00152 µM	0.998
[10], 0.00457 µM	0.992
[10], 0.01372 µM	1
[10], 0.04115 µM	0.95
[10], 0.1235 µM	0.93
[10], 0.3704 µM	0.791
[10], 1.111 µM	0.692
[10], 3.333 µM	0.56
[10], 10 µM	0.0616
[11], 0.00017 µM	0.903
[11], 0.00051 µM	0.889
[11], 0.00152 µM	0.924
[11], 0.00457 µM	0.913
[11], 0.01372 µM	0.897
[11], 0.04115 µM	0.869
[11], 0.1235 µM	0.79
[11], 0.3704 µM	0.517
[11], 1.111 µM	0.348
[11], 3.333 µM	0.282
[11], 10 µM	0.0189
[12], 0.00017 µM	0.999
[12], 0.00051 µM	1.01
[12], 0.00152 µM	1.02
[12], 0.00457 µM	1
[12], 0.01372 µM	0.969
[12], 0.04115 µM	0.92
[12], 0.1235 µM	0.891
[12], 0.3704 µM	0.734
[12], 1.111 µM	0.503
[12], 3.333 µM	0.483
[12], 10 µM	0.46
